One experiment has as its system SW620 colon cancer cells. The class given is cell-based. The settings on record: Homo sapiens, SW-620, 120 h, read-out: Cell Line GI50 Range SW-620.
For the next experiment, the system named is A549 lung cancer cells. Format: cell-based. The settings on record: Homo sapiens, A549, 120 h, read-out: Cell Line GI50 Range A-549.
The target in the next experiment is Aurora B (Homo sapiens, UniProt Q96GD4). The experiment is described as follows: Aurora B inhibition assay (Z-Lyte). The class given is biochemical. Particulars: read-out: IC50 Ranges Aurora B.
In the next experiment the target is T1, human PLK4 (Homo sapiens, UniProt O00444).
T1 construct: amino terminal GST fusion of residues 1-391 of human PLK4; made in house; host or cells: E. coli
T1 sequence (O00444 1-391): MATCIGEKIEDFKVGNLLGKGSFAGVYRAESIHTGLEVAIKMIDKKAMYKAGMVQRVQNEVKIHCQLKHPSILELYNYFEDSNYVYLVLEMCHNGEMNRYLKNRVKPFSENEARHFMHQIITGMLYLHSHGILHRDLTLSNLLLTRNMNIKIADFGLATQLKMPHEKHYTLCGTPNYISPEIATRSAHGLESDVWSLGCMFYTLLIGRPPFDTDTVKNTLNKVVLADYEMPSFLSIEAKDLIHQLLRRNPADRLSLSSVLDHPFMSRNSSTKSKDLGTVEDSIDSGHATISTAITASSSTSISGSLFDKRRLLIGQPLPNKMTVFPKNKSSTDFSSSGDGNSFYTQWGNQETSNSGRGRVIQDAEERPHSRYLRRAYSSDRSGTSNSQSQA
The experiment is described as follows: PLK4 inhibition assay (indirect ELISA). Format: biochemical. The settings on record: read-out: IC50 Ranges PLK4.

The values that follow come from US8263596B2, “Kinase inhibitors and method of treating cancer” (University Health Network, priority 2010, dated 2012).

SMILES strings stand for the structures. Where a name gives a salt, the structure may show the parent alone.

Sequence of Aurora B (Q96GD4 whole entry): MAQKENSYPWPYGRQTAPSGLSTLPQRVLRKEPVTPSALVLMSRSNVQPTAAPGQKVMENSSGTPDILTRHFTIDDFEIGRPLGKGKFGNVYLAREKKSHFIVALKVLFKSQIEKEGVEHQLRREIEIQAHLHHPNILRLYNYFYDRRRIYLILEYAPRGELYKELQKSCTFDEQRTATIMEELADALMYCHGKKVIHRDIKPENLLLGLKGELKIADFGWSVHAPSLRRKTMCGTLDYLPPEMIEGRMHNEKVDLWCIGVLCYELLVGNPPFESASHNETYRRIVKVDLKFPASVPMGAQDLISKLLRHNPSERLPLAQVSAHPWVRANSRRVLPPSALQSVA
Procedure for Aurora B: Aurora B inhibition was determined using the Z-Lyte assay kit from Invitrogen. […] The % inhibition values were determined according to the manufacturer's directions and IC50 values were obtained using a non-linear 4 point logistic curve fit (XLfit4, IDBS)
Procedure for human PLK4: PLK4 activity was measured using an indirect ELISA detection system. […] The colourimetric reaction was allowed to continue for 5 minutes, followed by addition of stop solution (0.5 N sulphuric acid), and quantified by detection at 450 nm with either a monochromatic or filter based plate reader (Molecular Devices M5 or Beckman DTX880, respectively).
Compounds were pre-incubated in the presence of enzyme for 15 minutes prior to addition of ATP and the activity remaining quantified using the above described activity assay. […] The IC50 value was determined using a non-linear 4 point logistic curve fit (XLfit4, IDBS) with the formula; (A+(B/(1+((x/C)^D)))), where A=background value, B=range, C=inflection point, D=curve fit parameter.

What is called GI50 is the concentration that inhibits growth by half. On to `O=C1Nc2ccccc2[C@]12CC2c1ccc2cn[nH]c2c1` (mixture of isomers) [Example A2, (1R*,2S*)-2-(1H-indazol-6-yl)spiro[cyclopropane-1,3′-indolin]-2′-one], for which the GI50 with SW620 colon cancer cells and with A549 lung cancer cells was > 10000 nM in each case.

Turning to `COc1ccc2c(c1)[C@]1(CC1c1ccc3c(-c4ccc(N5CCN(C)CC5)nc4)n[nH]c3c1)C(=O)N2` (mixture of isomers) [Example A14, (1R*,2S*)-5′-Methoxy-2-(3-(6-(4-methylpiperazin-1-yl)pyridin-3-yl)-1H-indazol-6-yl)spiro[cyclopropane-1,3′-indolin]-2′-one dihydrochloride], the GI50 with SW620 colon cancer cells and with A549 lung cancer cells was < 100 nM in each case.

The term IC50 denotes the point on the concentration scale where inhibition reaches its midpoint. `COc1ccc2c(c1)[C@]1(C[C@H]1c1ccc3c(-c4ccc(N5CCN(C)CC5)cc4)n[nH]c3c1)C(=O)N2` (relative stereo) [Example A38, (1R*,2S*)-5′-Methoxy-2-(3-(4-(4-methylpiperazin-1-yl)phenyl)-1H-indazol-6-yl)spiro[cyclopropane-1,3′-indolin]-2′-one]: the GI50 in the experiment on SW620 colon cancer cells was in the range of 100 to 1000 nM. Further, the IC50 on Aurora B is < 100 nM.

In the case of `COc1ccc2c(c1)[C@]1(C[C@H]1c1ccc3c(-c4ccc(N5CCC(O)CC5)nc4)n[nH]c3c1)C(=O)N2` (relative stereo) [Example A117, (1R*,2S*)-2-(3-(6-(4-hydroxypiperidin-1-yl)pyridin-3-yl)-1H-indazol-6-yl)-5′-methoxyspiro[cyclopropane-1,3′-indolin]-2′-one 2,2,2-trifluoroacetate], the figures for the GI50 in the experiment on SW620 colon cancer cells and with A549 lung cancer cells were > 10000 nM and 1000 to 10000 nM, respectively. Further, the IC50 at Aurora B lay in the range of 100 to 1000 nM.

As for `COc1ccc2c(c1)[C@]1(C[C@H]1c1ccc3c(-c4ccc(C5CCNCC5)cc4)n[nH]c3c1)C(=O)N2` (relative stereo) [Example A122, (1R*,2S*)-5′-methoxy-2-(3-(4-(piperidin-4-yl)phenyl)-1H-indazol-6-yl)spiro[cyclopropane-1,3′-indolin]-2′-one 2,2,2-trifluoroacetate], the GI50 with SW620 colon cancer cells and in the experiment with A549 lung cancer cells was < 100 nM each time.

Turning to `COc1ccc2c(c1)[C@]1(C[C@H]1c1ccc3c(-c4ccc(C(=O)N5CCN(C)CC5)cc4)n[nH]c3c1)C(=O)N2` (relative stereo) [Example A148, (1R*,2S*)-5′-methoxy-2-(3-(4-(4-methylpiperazine-1-carbonyl)phenyl)-1H-indazol-6-yl)spiro[cyclopropane-1,3′-indolin]-2′-one 2,2,2-trifluoroacetate], the figures for the IC50 on human PLK4 and at Aurora B were < 100 nM and 100 to 1000 nM, respectively. Also, the results for the GI50 in the experiment with SW620 colon cancer cells and in the experiment with A549 lung cancer cells were 1000 to 10000 nM and 100 to 1000 nM, respectively.

As for `NC(=O)CN1C(=O)[C@@]2(C[C@H]2c2ccc3c(/C=C/c4ccc(CN5CCCCC5)cc4)n[nH]c3c2)c2ccccc21` (relative stereo) [Example A165, 2-((1R*,2S*)-(E)-2′-oxo-2-(3-(4-(piperidin-1-ylmethyl)styryl)-1H-indazol-6-yl)spiro[cyclopropane-1,3′-indoline]-1′-yl)acetamide 2,2,2-trifluoroacetate], the half-inhibitory concentration (IC50) on human PLK4 and on Aurora B was < 100 nM each time.

On to `COc1cc2c(cc1OC)[C@]1(C[C@H]1c1ccc3c(/C=C/c4ccc(CN(C)C)cc4)n[nH]c3c1)C(=O)N2` (relative stereo) [Example A168, (1R*,2S*)-(E)-2-(3-(4-((dimethylamino)methyl)styryl)-1H-indazol-6-yl)-5′,6′-dimethoxyspiro[cyclopropane-1,3′-indolin]-2′-one 2,2,2-trifluoroacetate], for which the IC50 at human PLK4 and on Aurora B was < 100 nM throughout.

As to `Cc1ccc2c(c1)[C@]1(C[C@H]1c1ccc3c(/C=C/c4ccc(CN(C)C)cc4)n[nH]c3c1)C(=O)N2` (relative stereo) [Example A169, (1R*,2S*)-(E)-2-(3-(4-((dimethylamino)methyl)styryl)-1H-indazol-6-yl)-5′-methylspiro[cyclopropane-1,3′-indolin]-2′-one 2,2,2-trifluoroacetate], the GI50 in the experiment on A549 lung cancer cells is < 100 nM.

With `CC(C)CCN1C(=O)[C@@]2(C[C@H]2c2ccc3c(/C=C/c4ccc(CN(C)C)cc4)n[nH]c3c2)c2ccccc21` (relative stereo) [Example A176, (1R*,2S*)-(E)-2-(3-(4-((dimethylamino)methyl)styryl)-1H-indazol-6-yl)-1′-isopentylspiro[cyclopropane-1,3′-indolin]-2′-one], the IC50 at human PLK4 is < 100 nM; on Aurora B, 100 to 1000 nM.

`COc1ccc2c(c1)[C@]1(C[C@H]1c1ccc3c(/C=C/c4ccc(N5CCNCC5)cc4)n[nH]c3c1)C(=O)N2` (relative stereo) [Example A182, (1R*,2S*)-5′-methoxy-2-(3-(4-(piperazin-1-yl)styryl)-1H-indazol-6-yl)spiro[cyclopropane-1,3′-indolin]-2′-one 2,2,2-trifluoroacetate]: the IC50 on human PLK4 and on Aurora B was < 100 nM each time.

For `COc1ccc2c(c1)[C@]1(C[C@H]1c1ccc3c(/C=C/c4ccc(N5CCN(C(C)C)CC5)cc4)n[nH]c3c1)C(=O)N2` (relative stereo) [Example A189, (1R*,2S*)-(E)-2-(3-(4-(4-isopropylpiperazin-1-yl)styryl)-1H-indazol-6-yl)-5′-methoxyspiro[cyclopropane-1,3′-indolin]-2′-one 2,2,2-trifluoroacetate], the IC50 on human PLK4 and on Aurora B was < 100 nM in each case.

As to `CCN1Cc2ccc(/C=C/c3n[nH]c4cc([C@@H]5C[C@@]56C(=O)Nc5ccc(OC)cc56)ccc34)cc2C1` (relative stereo) [Example A190, (1R*,2S*)-2-(3-((E)-2-(2-ethylisoindolin-5-yl)vinyl)-1H-indazol-6-yl)-5′-methoxyspiro[cyclopropane-1,3′-indolin]-2′-one 2,2,2-trifluoroacetate], the IC50 at human PLK4 and on Aurora B was < 100 nM throughout.

For the compound `O=C1Nc2ccc(F)cc2[C@]12C[C@H]2c1ccc2c(/C=C/c3ccc(N4CCOCC4)nc3)n[nH]c2c1` (relative stereo) [Example A207, (1R*,2S*)-5′-fluoro-2-(3-((E)-2-(6-morpholinopyridin-3-yl)vinyl)-1H-indazol-6-yl)spiro[cyclopropane-1,3′-indolin]-2′-one 2,2,2-trifluoroacetate], the IC50 on human PLK4 and on Aurora B was < 100 nM in each case.

Turning to `CN1CCN(c2ccc(-c3n[nH]c4cc([C@@H]5C[C@@]56C(=O)Nc5ccc(OC(F)F)cc56)ccc34)cn2)CC1` (relative stereo) [Example A209, (1R*,2S*)-5′-(difluoromethoxy)-2-(3-(6-(4-methylpiperazine-1-yl)pyridine-3-yl)-1H-indazol-6-yl)spiro[cyclopropane-1,3′-indolin]-2′-one 2,2,2-trifluoro acetate], the IC50 on human PLK4 and on Aurora B was < 100 nM in each case.

Turning to `COc1ccc2c(c1)[C@]1(C[C@H]1c1ccc3c(/C=C/c4ccc(N5CCOCC5)nc4)n[nH]c3c1)C(=O)N2` (relative stereo) [Example A213, (1R*,2S*)-5′-methoxy-2-(3-((E)-2-(6-morpholinopyridin-3-yl)vinyl)-1H-indazol-6-yl)spiro[cyclopropane-1,3′-indolin]-2′-one 2,2,2-trifluoroacetate], the IC50 at human PLK4 and at Aurora B was < 100 nM each time.

For `COc1ccc2c(c1)[C@]1(CC1c1ccc3c(/C=C/c4cc(F)c(CN(C)C)c(F)c4)n[nH]c3c1)C(=O)N2` (stereo in doubt) [Example A215, (1R*,2S*)-(E)-2-(3-(4-((dimethylamino)methyl)-3,5-difluorostyryl)-1H-indazol-6-yl)-5′-methoxyspiro[cyclopropane-1,3′-indolin]-2′-one 2,2,2-trifluoro acetate], the IC50 at human PLK4 and at Aurora B was < 100 nM in each case.

As for `COc1ccc2c(c1)C1(CC1c1ccc3c(I)n[nH]c3c1)C(=O)N2` (stereo not drawn) [Example A6, (1R*,2S*)- and (1R*,2R*)-2-(3-iodo-1H-indazol-6-yl)-5-methoxyspiro-[cyclopropane-1,3′-indolin]-2′-one], the IC50 is < 100 nM on human PLK4 and 100 to 1000 nM at Aurora B.

Regarding `CN1C(=O)[C@@]2(C[C@H]2c2ccc3c(/C=C/c4ccc(N5CCNCC5)cc4)n[nH]c3c2)c2ccccc21` [Example A90, (1R,2S)-(E)-1′-methyl-2-(3-(4-(piperazin-1-yl)styryl)-1H-indazol-6-yl)spiro[cyclopropane-1,3′-indolin]-2′-one hydrochloride], the GI50 with SW620 colon cancer cells and with A549 lung cancer cells was < 100 nM in each case.

As to `COc1ccc2c(c1)[C@]1(C[C@H]1c1ccc3c(/C=C/c4ccc(CN5CCOCC5)s4)n[nH]c3c1)C(=O)N2` [Example A105, (1R,2S)-5′-methoxy-2-(3-((E)-2-(5-(morpholinomethyl)thiophen-2-yl)vinyl)-1H-indazol-6-yl)spiro[cyclopropane-1,3′-indolin]-2′-one hydrochloride], the GI50 in the experiment on SW620 colon cancer cells and in the experiment with A549 lung cancer cells was < 100 nM each time.

Take `COc1ccc2c(c1)[C@]1(C[C@H]1c1ccc3c(-c4ccc(N5CCC(N(C)C)CC5)cc4)n[nH]c3c1)C(=O)N2` [Example A120, (1R,2S)-2-(3-(4-(4-(dimethylamino)piperidin-1-yl)phenyl)-1H-indazol-6-yl)-5′-methoxyspiro[cyclopropane-1,3′-indolin]-2′-one 2,2,2-trifluoroacetate]: the IC50 on human PLK4 and at Aurora B was < 100 nM in each case.
